Experimental data published in ChEMBL document CHEMBL1201862, “PubChem BioAssay data set” (2004).
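The compound was tested at five concentrations on cells cultured in 96-well plates, with a 48-hour exposure period. GI50 is the concentration that inhibits growth by half.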 Active and inactive are the calls of the source. Rule as the data show it: active = GI50 up to about 1.1 µM and inactive = higher.

Experiments:
Assay in all cases: NCI tumour cell line growth inhibition, 48 h
SR = tested on: SR
K562 = tested on: K562
RPMI-8226 = tested on: RPMI-8226
MDA-MB-435 = tested on: MDA-MB-435
HCT-116 = tested on: HCT-116
BT-549 = tested on: BT-549
CAKI-1 = tested on: CAKI-1
MDA-MB-231 = tested on: MDA-MB-231
TK-10 = tested on: TK-10
UACC-257 = tested on: UACC-257
OVCAR-3 = tested on: OVCAR-3
EKVX = tested on: EKVX
SK-MEL-28 = tested on: SK-MEL-28
UACC-62 = tested on: UACC-62
HOP-62 = tested on: HOP-62
MDA-N = tested on: MDA-N
HCC 2998 = tested on: HCC 2998
SN12C = tested on: SN12C
OVCAR-8 = tested on: OVCAR-8
SF-268 = tested on: SF-268
HOP-92 = tested on: HOP-92
HT-29 = tested on: HT-29
OVCAR-5 = tested on: OVCAR-5
SNB-75 = tested on: SNB-75
T47D = tested on: T47D
A549 = tested on: A549
SF-539 = tested on: SF-539
UO-31 = tested on: UO-31
COLO 205 = tested on: COLO 205
SK-MEL-2 = tested on: SK-MEL-2
MOLT-4 = tested on: MOLT-4
HCT-15 = tested on: HCT-15
HL-60 = tested on: HL-60
M14 = tested on: M14
ACHN = tested on: ACHN
MCF7 = tested on: MCF7
Hs-578T = tested on: Hs-578T
786-0 = tested on: 786-0
DU-145 = tested on: DU-145
LOX IMVI = tested on: LOX IMVI
KM12 = tested on: KM12
SF-295 = tested on: SF-295
Malme-3M = tested on: Malme-3M
NCI-H522 = tested on: NCI-H522
RXF 393 = tested on: RXF 393
NCI/ADR-RES = tested on: NCI/ADR-RES
NCI-H23 = tested on: NCI-H23
SK-MEL-5 = tested on: SK-MEL-5
IGROV-1 = tested on: IGROV-1
SNB-19 = tested on: SNB-19
SK-OV-3 = tested on: SK-OV-3
A498 = tested on: A498
CCRF-CEM = tested on: CCRF-CEM
NCI-H226 = tested on: NCI-H226
U-251 = tested on: U-251
SW-620 = tested on: SW-620
OVCAR-4 = tested on: OVCAR-4
PC-3 = tested on: PC-3
NCI-H460 = tested on: NCI-H460

With `Cn1c2ccccc2c2c(=O)[nH]c(=O)[nH]c21` the GI50 (SR) was > 100 µM (inactive), the GI50 (K562) was > 100 µM (inactive) and the GI50 (RPMI-8226) was > 100 µM (inactive). For the same molecule, the GI50 (MDA-MB-435) was > 100 µM (inactive), the GI50 (HCT-116) was > 100 µM (inactive) and the GI50 (BT-549) was > 100 µM (inactive). The GI50 (CAKI-1) was > 100 µM (inactive), the GI50 (MDA-MB-231) was > 100 µM (inactive) and the GI50 (TK-10) was > 100 µM (inactive). The GI50 (UACC-257) was > 100 µM (inactive), the GI50 (OVCAR-3) was > 100 µM (inactive) and the GI50 (EKVX) was > 100 µM (inactive). For the same molecule, the GI50 (SK-MEL-28) was > 100 µM (inactive), the GI50 (UACC-62) was > 100 µM (inactive) and the GI50 (HOP-62) was > 100 µM (inactive). The GI50 (MDA-N) was > 100 µM (inactive), the GI50 (HCC 2998) was > 100 µM (inactive) and the GI50 (SN12C) was > 100 µM (inactive). The GI50 (OVCAR-8) was > 100 µM (inactive), the GI50 (SF-268) was > 100 µM (inactive) and the GI50 (HOP-92) was > 100 µM (inactive). For the same molecule, the GI50 (HT-29) was > 100 µM (inactive), the GI50 (OVCAR-5) was > 100 µM (inactive) and the GI50 (SNB-75) was 82.4 µM (inactive). The GI50 (T47D) was > 100 µM (inactive), the GI50 (A549) was > 100 µM (inactive) and the GI50 (SF-539) was > 100 µM (inactive). The GI50 (UO-31) was > 100 µM (inactive), the GI50 (COLO 205) was > 100 µM (inactive) and the GI50 (SK-MEL-2) was > 100 µM (inactive). The GI50 (MOLT-4) was > 100 µM (inactive), the GI50 (HCT-15) was > 100 µM and the GI50 (HL-60) was > 100 µM (inactive). The GI50 (M14) was > 100 µM (inactive), the GI50 (ACHN) was > 100 µM (inactive) and the GI50 (MCF7) was > 100 µM (inactive). The GI50 (Hs-578T) was > 100 µM (inactive), the GI50 (786-0) was > 100 µM (inactive) and the GI50 (DU-145) was > 100 µM (inactive). For the same molecule, the GI50 (LOX IMVI) was > 100 µM (inactive), the GI50 (KM12) was > 100 µM (inactive) and the GI50 (SF-295) was > 100 µM (inactive). For the same molecule, the GI50 (Malme-3M) was > 100 µM (inactive), the GI50 (NCI-H522) was > 100 µM (inactive) and the GI50 (RXF 393) was > 100 µM (inactive). The GI50 (NCI/ADR-RES) was > 100 µM (inactive), the GI50 (NCI-H23) was > 100 µM (inactive) and the GI50 (SK-MEL-5) was > 100 µM (inactive). For the same molecule, the GI50 (IGROV-1) was > 100 µM (inactive), the GI50 (SNB-19) was > 100 µM (inactive) and the GI50 (SK-OV-3) was > 100 µM (inactive). The GI50 (A498) was > 100 µM (inactive), the GI50 (CCRF-CEM) was > 100 µM (inactive) and the GI50 (NCI-H226) was > 100 µM (inactive). For the same molecule, the GI50 (U-251) was > 100 µM (inactive) and the GI50 (SW-620) was > 100 µM (inactive).

In the case of `Nc1nc(N)c2cc(Sc3ccc4ccccc4c3)ccc2n1`, the GI50 (K562) was 0.211 µM (active), the GI50 (RPMI-8226) was 2.14 µM (inactive) and the GI50 (MDA-MB-435) was 0.687 µM (active). The GI50 (HCT-116) was 1.17 µM (inactive), the GI50 (BT-549) was 3.61 µM (inactive) and the GI50 (CAKI-1) was 4.52 µM (inactive). The GI50 (MDA-MB-231) was 2.54 µM (inactive), the GI50 (OVCAR-4) was 4.18 µM (inactive) and the GI50 (TK-10) was 3.1 µM (inactive). The GI50 (UACC-257) was 1.58 µM (inactive), the GI50 (OVCAR-3) was 5.89 µM (inactive) and the GI50 (EKVX) was 2.96 µM (inactive). For the same molecule, the GI50 (UACC-62) was 0.568 µM (active), the GI50 (HOP-62) was 3.56 µM (inactive) and the GI50 (MDA-N) was 0.733 µM (active). For the same molecule, the GI50 (SN12C) was 1.03 µM (active), the GI50 (OVCAR-8) was 1 µM (active) and the GI50 (SF-268) was 3.11 µM (inactive). For the same molecule, the GI50 (HOP-92) was 1.14 µM (inactive), the GI50 (HT-29) was 1.79 µM (inactive) and the GI50 (OVCAR-5) was 3.48 µM (inactive). The GI50 (SNB-75) was 14.4 µM (inactive), the GI50 (T47D) was 2.12 µM (inactive) and the GI50 (A549) was 0.343 µM (active). For the same molecule, the GI50 (SF-539) was 1.73 µM (inactive), the GI50 (UO-31) was 2.76 µM (inactive) and the GI50 (COLO 205) was 1.63 µM (inactive). For the same molecule, the GI50 (MOLT-4) was 2.8 µM (inactive), the GI50 (HCT-15) was 0.643 µM and the GI50 (HL-60) was 1.38 µM (inactive). The GI50 (M14) was 1.23 µM (inactive), the GI50 (ACHN) was 0.509 µM (active) and the GI50 (MCF7) was 1.3 µM (inactive). The GI50 (Hs-578T) was 11.9 µM (inactive), the GI50 (786-0) was 0.479 µM (active) and the GI50 (DU-145) was 5.79 µM (inactive). The GI50 (PC-3) was 1.87 µM (inactive), the GI50 (LOX IMVI) was 0.627 µM (active) and the GI50 (KM12) was 1.98 µM (inactive). For the same molecule, the GI50 (SF-295) was 0.509 µM (active), the GI50 (NCI-H460) was 0.682 µM (active) and the GI50 (NCI-H522) was 2.2 µM (inactive). The GI50 (RXF 393) was 3.32 µM (inactive), the GI50 (NCI/ADR-RES) was 1.07 µM (active) and the GI50 (NCI-H23) was 5.82 µM (inactive). The GI50 (SK-MEL-5) was 0.845 µM (active), the GI50 (SNB-19) was 3.48 µM (inactive) and the GI50 (SK-OV-3) was 13.8 µM (inactive). The GI50 (A498) was 11.5 µM (inactive), the GI50 (CCRF-CEM) was 0.705 µM (active) and the GI50 (NCI-H226) was 10.7 µM (inactive). For the same molecule, the GI50 (U-251) was 2.15 µM (inactive) and the GI50 (SW-620) was 0.729 µM (active).
